# Assay results: EP4696689A1, “SALT FORM AND CRYSTAL FORM OF CHIRAL HETEROCYCLIC COMPOUND HAVING HEDGEHOG PATHWAY ANTAGONIST ACTIVITY” (Suzhou Kintor Pharmaceuticals, Inc., priority 2023, dated 2024)
# Key:
# [1] = body weight of tumor-bearing mice during treatment; settings: for Mean Body Weight at Day 0: before treatment; for Body Weight Change Rate (%) / Mean Body Weight at Dosing Endpoint: 17 days
# in vivo [2] = settings: rat, po, 10 mg/kg
# Description: Solvent A: 0.5% CMC-Na +0.2% Tween80
# Preparation method: 5 g of sodium carboxymethyl cellulose (CMC-Na) was accurately weighed, 2 mL of Tween 80 was added, 998 mL of purified water was added, stirred and evenly mixed on a magnetic stirrer, and stored at room temperature.
# After administration, blood was taken at different time points through orbit, and the blood samples were placed in a tube containing heparin sodium (as an anticoagulant), centrifuged by a cryocentrifuge and then stored in an environment of -80°C. An appropriate amount of plasma sample (50 µL) was taken into which (200 µL) cold acetonitrile containing the internal standard was added. The plasma protein was precipitated by centrifugation for 10 minutes. Finally, 100 µL of the supernatant was added and diluted with 100 µL of pure water and then injected into an LC-MS/MS system for analysis.
# LC-MS/MS analysis method: All samples were analyzed by an LC-MS/MS system of an API 3000 mass spectrometer equipped with an Agilent 1100 series of liquid phase systems (Agilent, Japan). Column: Agilent XORBAX, XDB-C8 (50×2.1mm;3.5µm). Column temperature: room temperature, flow rate: 0.4 mL/min, total running time:7min.
# For the quantitative analysis of MS/MS, the API3000 mass spectrometer is operated in the positive ESI mode with multiple reaction monitoring (MRM). All compounds and internal standards were monitored with a dwell time of 200 milliseconds. Other MS/MS parameter settings are as follows: Nebulizer gas (NEB): 12 psi, Gas curtain gas (CUR): 7 psi, Collision gas (CAD): 4 psi, Ion spray voltage: 5000V, Ion source temperature:500 °C. For the transitions of the selected ions, each analyte was tested under the optimal sensitivity clustering potential (DP) and collision energy (CE). Finally, the data were collected and processed using the SCIEX Analyst 1.5.2 data processing software system.
# Preparation method: 0.1 g of sodium carboxymethyl cellulose (CMC-Na) was accurately weighed, 20 ml of purified water was added, and ultrasonic stirring was performed to dissolve it to obtain 0.5% CMC-Na.
# [3] = tested on: primary extracted medulloblastoma cells; assay: antitumor efficacy against medulloblastoma, subcutaneous xenograft model; type: in vivo, CB-17/SCID mice; settings: for Tumor Volume at Day 0 (mm^3): before treatment; for T/C (%) / Tumor Volume at Dosing Endpoint (mm^3) / TGI (%): 17 days; for Tumor Volume at Dosing Endpoint (mm^3): volume on Day 18; for Fold Change in Tumor Volume: Day 18 compared to Day 0; for anti-tumor efficacy compared to the high-dose GDC-0449 (10 mg/kg) group: after 17 days of treatment;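 on all read-outs here: male CB-17/SCID mice bearing subcutaneous tumors, randomized at 150-300 mm^3, tumor volume from caliper diameters as 0.5 × longest × shortest squared, measured twice weekly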
# Description: 60 male CB-17/SCID mice (aged 6-8 weeks) were purchased from Shanghai SLAC Laboratory Animal Co., Ltd. Animals were housed in individually ventilated cages (IVCs), with five mice per cage. Housing conditions were as follows: temperature was maintained at 20-26°C; humidity was 30-70%; 12 hours of light and 12 hours of darkness.
# CB-17/SCID mice were subcutaneously injected with primary extracted medulloblastoma cells. After 3-4 weeks, a subset of mice developed tumors with volumes ranging from 150 to 300 mm^3.
# 30 mice with uniform tumor sizes (Coefficient of Variation, CV < 30%, CV = Standard Deviation / Mean) were selected from this group. These mice were selected and randomly divided into five experimental groups according to Table 6-2, with six mice in each group and one group per cage. Drug administration began the day after grouping and lasted for 17 days with a frequency of twice daily (BID). The drug was discontinued after 17 days to observe tumor changes.
# During routine examinations, animals were monitored for tumor growth, activity level, food intake, water consumption, weight gain or loss, eye, fur, and any other abnormal behaviors. Animal deaths and clinical abnormalities were recorded. Tumor volume (TV) was measured twice weekly using calipers and calculated using the formula: TV = 0.5a × b^2, wherein a is the longest diameter of the tumor and b is the shortest diameter. Body weight was recorded twice weekly, concurrently with tumor volume measurements.
# If the animals' weight subsequently recovered to within a 10% loss compared to baseline, whether to continue the administration was based on the animals' condition. The in vivo experimental for an individual animal or the entire group would be terminated under the following conditions. The animals will be euthanized before death or coma. • ➢ If the animals' health condition deteriorated continuously, causing persistent suffering and is unable to eat or drink. • ➢ If the animal became emaciated, with a body weight loss exceeding 20% compared to the initial administration. • ➢ If the tumor volume of an individual mouse exceeded 3000 mm^3 or the mean tumor volume of the entire group exceeded 2000 mm^3.
# All data were analyzed using GraphPad Prism 5.0. P value < 0.05 was considered statistically significant.
# Primary tumor cells were extracted from Math1-Cre/Ptch1 ^C/C mice with spontaneous medulloblastoma and subcutaneously inoculated into CB-17/SCID mice to establish a xenograft model of medulloblastoma.
# in vivo [4] = settings: mouse, in vivo, po, 10 mg/kg
# Description: The collected plasma samples were subjected to a protein precipitation method by using an organic reagent according to the following method to extract test article in the plasma, and the extracted sample was subjected to quantitative concentration analysis through the LC-MS/MS.
# Meanwhile, an accompanying standard curve and quality control samples were prepared for quantitative analysis.
# The fumarate salt form F of the compound of formula (I) Group: 50 µL of plasma at each time point was taken, 400 µL of acetonitrile was added, vortex mixing and centrifugation was performed at 10000 rpm for 10 min, and a 200 µL supernatant for LC-MS/MS analysis was taken. Meanwhile, an accompanying standard curve and quality control samples were prepared for quantitative analysis.
# According to the plasma drug concentration data obtained through analysis, the main pharmacokinetic parameters were calculated according to the non-atrioventricular model by using Kinetic software (Version 5.0).
structure (smiles),measurement,setting,value
Cc1cnc(-c2cc(N3CCc4nc(N5CCC(O)CC5)ncc4[C@H]3C)ncc2Cl)c(C)c1 [Fumarate crystal form F],Mean Body Weight at Day 0,[1]; 1 mg/kg group,23.9 ± 3.1 g
same,Body Weight Change Rate (%),[1]; 1 mg/kg i.g. BID,17.2%
same,Mean Body Weight at Dosing Endpoint,[1]; 1 mg/kg i.g. BID,28.0 ± 2.2 g
same,Mean Body Weight at Day 0,[1]; 3 mg/kg group,24.6 ± 1.8 g
same,Body Weight Change Rate (%),[1]; 3 mg/kg i.g. BID,8.5%
same,Mean Body Weight at Dosing Endpoint,[1]; 3 mg/kg i.g. BID,26.7 ± 2.2 g
same,Mean Body Weight at Day 0,[1]; 10 mg/kg group,22.4 ± 2.1 g
same,Body Weight Change Rate (%),[1]; 10 mg/kg i.g. BID,13.8%
same,Mean Body Weight at Dosing Endpoint,[1]; 10 mg/kg i.g. BID,25.5 ± 1.7 g
same,impact on the body weight of tumor-bearing mice during the treatment period,"[1]; administered doses, i.g. BID × 17 days",no significant impact
same,AUC(0-t) at 24 h,in vivo [2],14300 ng·h/mL
same,Cmax,in vivo [2],2850 ng/mL
same,bioavailability,in vivo [2],97.5%
same,Tumor Volume at Day 0 (mm^3),[3]; 1 mg/kg group,220.5 ± 43.7 mm^3
same,Tumor Volume,"[3]; 1 mg/kg i.g. BID × 17 days, day 0 after grouping",220.5 ± 43.7 mm3
same,Tumor Volume,"[3]; 1 mg/kg i.g. BID × 17 days, day 3",244.9 ± 82.4 mm3
same,Tumor Volume,"[3]; 1 mg/kg i.g. BID × 17 days, day 6",483.8 ± 252.8 mm3
same,Tumor Volume,"[3]; 1 mg/kg i.g. BID × 17 days, day 9",759.7 ± 401.1 mm3
same,Tumor Volume,"[3]; 1 mg/kg i.g. BID × 17 days, day 12",1234.4 ± 582.9 mm3
same,Tumor Volume,"[3]; 1 mg/kg i.g. BID × 17 days, day 15",2056.6 ± 1094.9 mm3
same,Tumor Volume,"[3]; 1 mg/kg i.g. BID × 17 days, day 18",2868.8 ± 1372.9 mm3
same,Tumor Volume,"[3]; 1 mg/kg i.g. BID × 17 days, day 21, drug withdrawal observation",4176.0 ± 1871.1 mm3
same,T/C (%),[3]; 1 mg/kg i.g. BID,124.5%
same,Tumor Volume at Dosing Endpoint (mm^3),[3]; 1 mg/kg i.g. BID,2868.8 ± 1372.9 mm^3
same,Fold Change in Tumor Volume,[3]; 1 mg/kg i.g. BID,12.80 ± 4.95
same,Tumor Volume at Day 0 (mm^3),[3]; 3 mg/kg group,244.1 ± 17.1 mm^3
same,Tumor Volume,"[3]; 3 mg/kg i.g. BID × 17 days, day 0 after grouping",244.1 ± 17.1 mm3
same,Tumor Volume,"[3]; 3 mg/kg i.g. BID × 17 days, day 3",205.3 ± 26.0 mm3
same,Tumor Volume,"[3]; 3 mg/kg i.g. BID × 17 days, day 6",147.7 ± 56.5 mm3
same,Tumor Volume,"[3]; 3 mg/kg i.g. BID × 17 days, day 9",140.1 ± 62.3 mm3
same,Tumor Volume,"[3]; 3 mg/kg i.g. BID × 17 days, day 12",112.7 ± 46.9 mm3
same,Tumor Volume,"[3]; 3 mg/kg i.g. BID × 17 days, day 15",125.4 ± 58.9 mm3
same,Tumor Volume,"[3]; 3 mg/kg i.g. BID × 17 days, day 18",150.4 ± 77.2 mm3
same,Tumor Volume,"[3]; 3 mg/kg i.g. BID × 17 days, day 21, drug withdrawal observation",199.3 ± 93.7 mm3
same,Tumor Volume,"[3]; 3 mg/kg i.g. BID × 17 days, day 23, drug withdrawal observation",271.2 ± 131.7 mm3
same,Tumor Volume,"[3]; 3 mg/kg i.g. BID × 17 days, day 26, drug withdrawal observation",604.1 ± 328.5 mm3
same,Tumor Volume,"[3]; 3 mg/kg i.g. BID × 17 days, day 29, drug withdrawal observation",887.6 ± 407.9 mm3
same,Tumor Volume,"[3]; 3 mg/kg i.g. BID × 17 days, day 32, drug withdrawal observation",1209.2 ± 513.6 mm3
same,Tumor Volume,"[3]; 3 mg/kg i.g. BID × 17 days, day 35, drug withdrawal observation",1645.0 ±560.6 mm3
same,Tumor Volume,"[3]; 3 mg/kg i.g. BID × 17 days, day 38, drug withdrawal observation",2352.0 ± 963.1 mm3
same,T/C (%),[3]; 3 mg/kg i.g. BID,6.03%
same,TGI (%),[3]; 3 mg/kg i.g. BID,93.97%
same,Tumor Volume at Dosing Endpoint (mm^3),[3]; 3 mg/kg i.g. BID,150.4 ± 77.2 mm^3
same,Fold Change in Tumor Volume,[3]; 3 mg/kg i.g. BID,0.62 ± 0.33
same,Tumor Volume at Day 0 (mm^3),[3]; 10 mg/kg group,234.5 ± 33.6 mm^3
same,Tumor Volume,"[3]; 10 mg/kg i.g. BID × 17 days, day 0 after grouping",234.5 ± 33.6 mm3
same,Tumor Volume,"[3]; 10 mg/kg i.g. BID × 17 days, day 3",187.9 ± 44.7 mm3
same,Tumor Volume,"[3]; 10 mg/kg i.g. BID × 17 days, day 6",98.7 ± 28.9 mm3
same,Tumor Volume,"[3]; 10 mg/kg i.g. BID × 17 days, day 9",47.9 ± 29.8 mm3
same,Tumor Volume,"[3]; 10 mg/kg i.g. BID × 17 days, day 12",24.5 ± 14.9 mm3
same,Tumor Volume,"[3]; 10 mg/kg i.g. BID × 17 days, day 15",10.9 ± 5.1 mm3
same,Tumor Volume,"[3]; 10 mg/kg i.g. BID × 17 days, day 18",8.8 ± 6.1 mm3
same,Tumor Volume,"[3]; 10 mg/kg i.g. BID × 17 days, day 21, drug withdrawal observation",14.7 ± 10.1 mm3
same,Tumor Volume,"[3]; 10 mg/kg i.g. BID × 17 days, day 23, drug withdrawal observation",16.6 ± 9.7 mm3
same,Tumor Volume,"[3]; 10 mg/kg i.g. BID × 17 days, day 26, drug withdrawal observation",18.1 ± 11.5 mm3
same,Tumor Volume,"[3]; 10 mg/kg i.g. BID × 17 days, day 29, drug withdrawal observation",43.9 ± 37.3 mm3
same,Tumor Volume,"[3]; 10 mg/kg i.g. BID × 17 days, day 32, drug withdrawal observation",92.2 + 101.2 mm3
same,Tumor Volume,"[3]; 10 mg/kg i.g. BID × 17 days, day 35, drug withdrawal observation",214.8 + 254.9 mm3
same,Tumor Volume,"[3]; 10 mg/kg i.g. BID × 17 days, day 38, drug withdrawal observation",347.4 + 445.9 mm3
same,T/C (%),[3]; 10 mg/kg i.g. BID,0.39%
same,TGI (%),"[3]; 10 mg/kg i.g. BID, TGI = [1 - RTV(treatment group) / RTV(control group)] × 100%",99.61%
same,Tumor Volume at Dosing Endpoint (mm^3),[3]; 10 mg/kg i.g. BID,8.8 ± 6.1 mm^3
same,Fold Change in Tumor Volume,[3]; 10 mg/kg i.g. BID,0.04 ± 0.03
same,anti-tumor efficacy compared to the high-dose GDC-0449 (10 mg/kg) group,[3]; high-dose (10 mg/kg),significantly superior
same,inhibitory effect on tumor growth versus vehicle control group,[3]; low dose (1 mg/kg),did not show a significant inhibitory effect
same,recurrent tumor volume compared with the GDC-0449 group at the same time,"[3]; medium and high-dose group, post-treatment observation period",significantly lower
same,anti-tumor efficacy compared to the high-dose GDC-0449 (10 mg/kg) group,[3]; medium-dose (3 mg/kg),significantly superior
same,AUC(0-inf),in vivo [4],16700 ng·h/mL
same,AUC(0-t),in vivo [4],7500 ng·h/mL
same,Cmax,in vivo [4],2410 ng/mL
same,MRT,in vivo [4],15.6 h
same,Tmax,in vivo [4],0.25 h
same,half-life,in vivo [4],12.4 h
